These are literature values, as cited in US20080161413A1, “Agent for increasing adiponectin in blood” (YAMAHA HATSUDOKI KABUSHIKI KAISHA, priority 2006, published 2008).

The data set deals with adiponectin. Conditions: obese/diabetic mice.

The structures appear in SMILES notation.

Take `COc1cc(C(C)=O)ccc1O` [apocynin]: the production of adiponectin result was “increases”.
